Paper PMC12371494, “Discovery of YTHDF2 Ligands by Fragment-Based Design” (ACS Bio & Med Chem Au, 2025)
Several values for one entry are separate records, joined by “and”; a condition that tells them apart may be missing. Equal values may be shown once.

Columns and labels:
GST-YTHDF2 = target: T1, GST-YTHDF2 (Homo sapiens, UniProt Q9Y5A9); experiment: HTRF-based binding assay, competition with m6A-oligoRNA, DF2; settings: for Single-dose residual signal at 100 µM, DF2: HTRF, 100 µM compound, normalized; for LE (ligand efficiency, DF2): LE = -RT ln IC50/HAC from HTRF IC50; for IC50: dose-response, competitor m6A-oligoRNA, read-out: DF2 IC50 (HTRF assay); for Improvement of HTRF IC50 compared to fragment 14: HTRF DF2
T1 construct: made in house
T1 sequence (Q9Y5A9 1-579): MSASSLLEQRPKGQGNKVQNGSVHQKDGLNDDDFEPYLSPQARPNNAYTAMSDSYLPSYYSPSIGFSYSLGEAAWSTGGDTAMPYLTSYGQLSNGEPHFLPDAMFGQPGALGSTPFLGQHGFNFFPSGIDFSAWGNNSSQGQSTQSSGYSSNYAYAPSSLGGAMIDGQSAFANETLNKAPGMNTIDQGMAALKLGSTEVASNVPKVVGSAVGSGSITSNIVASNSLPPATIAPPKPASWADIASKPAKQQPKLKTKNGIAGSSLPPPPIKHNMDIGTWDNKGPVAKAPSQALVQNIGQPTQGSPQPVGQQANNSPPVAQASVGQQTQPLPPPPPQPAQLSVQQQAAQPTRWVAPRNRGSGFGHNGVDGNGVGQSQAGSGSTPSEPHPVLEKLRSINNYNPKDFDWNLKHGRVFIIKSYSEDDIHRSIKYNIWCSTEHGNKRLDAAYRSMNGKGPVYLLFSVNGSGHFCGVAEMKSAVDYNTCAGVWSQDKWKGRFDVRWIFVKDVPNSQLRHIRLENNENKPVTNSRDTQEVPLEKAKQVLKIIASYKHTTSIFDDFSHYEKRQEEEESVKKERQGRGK

GST-YTHDF1 = target: T2, GST-YTHDF1 (Homo sapiens, UniProt Q9BYJ9); experiment: HTRF-based binding assay, DF1; settings: for Single-dose residual signal at 100 µM, DF1: 100 µM compound, normalized; for IC50: dose-response
T2 construct: made in house
T2 sequence (Q9BYJ9 1-559): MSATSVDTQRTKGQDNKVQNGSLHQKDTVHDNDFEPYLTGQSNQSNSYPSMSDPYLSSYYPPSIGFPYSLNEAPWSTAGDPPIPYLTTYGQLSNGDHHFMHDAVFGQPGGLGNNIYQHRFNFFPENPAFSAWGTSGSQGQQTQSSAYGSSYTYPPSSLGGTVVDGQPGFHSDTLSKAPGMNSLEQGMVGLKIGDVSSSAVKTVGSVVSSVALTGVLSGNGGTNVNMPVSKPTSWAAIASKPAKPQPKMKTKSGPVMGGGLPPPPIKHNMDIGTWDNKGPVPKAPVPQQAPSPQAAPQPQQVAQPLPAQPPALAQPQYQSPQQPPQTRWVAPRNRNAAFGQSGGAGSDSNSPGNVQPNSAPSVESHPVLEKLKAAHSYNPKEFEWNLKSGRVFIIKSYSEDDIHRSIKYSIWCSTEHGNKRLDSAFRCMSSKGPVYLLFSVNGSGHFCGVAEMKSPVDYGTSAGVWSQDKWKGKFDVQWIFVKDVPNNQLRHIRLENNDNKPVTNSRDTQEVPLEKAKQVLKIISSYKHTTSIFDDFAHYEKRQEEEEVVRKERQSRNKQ
Description: The HTRF-based assay was employed to evaluate the selectivity of the series against other DF proteins.
A dose–response experiment on DF1 and DF3 was conducted for compounds 17, 18, 23, and 27 (Figure S5). Compounds 17, 18, and 27 are active on three DF proteins. […] In contrast, compound 23 is selective for DF2, with residual signals (at the highest employed concentration of 62.5 μM) of 51 and 87% for DF1 and DF3, respectively.
GST-YTHDC1, GST-YTHDF1, GST-YTHDF2, and GST-YTHDF3 were purified as previously reported. The HTRF assay was assembled as detailed in ref with the only difference being that the starting concentration of the dose–response experiments used for the IC50 determination was variated dependently from the tested compound. The same protocol was applied to the four proteins. The competitive inhibition data of GST-YTHDF1 (single dose experiment at 100 μM compound concentration and dose–response curves), GST-YTHDF3 (single dose experiment at 100 μM compound concentration and dose–response curves), and GST-YTHDF2 (single dose experiment at 100 μM compound concentration) were normalized as described in ref to mitigate interference. The signal was measured as described in ref .

YTHDC2 = target: T3, YTHDC2 (Homo sapiens, UniProt Q9H6S0); experiment: DNA-fluorescence polarization (FP) competition assay, DC2; type: binding; settings: for Kd: Cheng-Prusoff from FP IC50, probe Kd 7 nM, two biological replicates; for Selectivity DF2 over DC2 (Kd ratio DC2/DF2): FP Kd values
T3 construct: YTH domain of YTHDC2 (residues 1285–1424, cloned into the pGEX-6P-1 vector); made in house; host or cells: Rosetta (DE3) cells (E. coli)
T3 sequence (Q9H6S0 1285-1424): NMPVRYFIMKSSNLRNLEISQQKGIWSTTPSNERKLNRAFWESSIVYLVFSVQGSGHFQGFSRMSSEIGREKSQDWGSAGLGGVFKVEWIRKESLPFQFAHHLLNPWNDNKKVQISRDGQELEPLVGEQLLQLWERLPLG
Description: The binding affinity for DC1 could not be evaluated by HTRF because of interference of the compounds with the assay, which has a smaller assay window when performed with DC1 compared to the DF proteins. Thus, the FP assay was used to evaluate binding to DC1 and DC2.
The N-terminally GST-tagged YTH domain of YTHDC2 (residues 1285–1424, cloned into the pGEX-6P-1 vector) was overexpressed in Rosetta (DE3) cells grown overnight at 20 °C following induction with 0.4 mM isopropyl-β-D-thiogalactopyranoside (IPTG) at an OD600 of 0.8. The cells were harvested and resuspended in a lysis buffer containing 100 mM Tris–HCl (pH 8.0) and 500 mM NaCl. After cell lysis, the lysate was clarified by centrifugation at 48,000g for 1 h, and the soluble proteins were loaded onto a column packed with Glutathione Sepharose 4B (GE Healthcare), then eluted with 20 mM reduced glutathione in lysis buffer. Finally, a size-exclusion chromatography step (HiLoad 16/600 Superdex 200 pg column, GE Healthcare) was performed to further purify the protein in 20 mM Tris–HCl (pH 7.4) and 150 mM NaCl.
For fluorescence polarization (FP) experiments, a 5′-fluorescein-labeled m^6A-DNA probe (5′-FAM-[…](m6A)-CTAAGCT-3′) was synthesized by Microsynth AG.
The final concentration of the fluorescein-labeled DNA was kept constant at 3 nM. For YTHDC2 measurements, the protein concentration was set to 25 nM, while for YTHDF2 measurements, it was set to 10 nM, and for YTHDC1, it was set at 15 nM. The compound concentration was serially diluted to obtain the dose–response curve. The competition experiments were conducted in a final volume of 20 μL in a buffer containing 20 mM Tris–HCl (pH 7.4), 150 mM NaCl, and 0.01% bovine serum albumin (BSA), using a 384-well black flat-bottomed microplate (Corning 3575).
After incubating the mixture for 1 h, the anisotropy values were measured using a Tecan SPARK plate reader with 485/20 nm excitation and 535/25 nm emission polarization filters, suitable for fluorescein, at 25 °C. To obtain the equilibrium dissociation constant (K d), the IC50 values were first derived by fitting a dose–response curve to the data using nonlinear regression analysis in GraphPad Prism. These IC50 values were then converted to K d by using the Cheng–Prusoff equation: Kd=IC50/1+[L]/Kdprobe
IC50 is the observed value from FP assay, [L] is the probe concentration used, and K d ^probe is the binding affinity of probe for the target.

| Compound | Single-dose residual signal at 100 µM, DF2 (GST-YTHDF2) [%] | LE (ligand efficiency, DF2) (GST-YTHDF2) | IC50 (GST-YTHDF2) [µM] | Single-dose residual signal at 100 µM, DF1 (GST-YTHDF1; HTRF) [%] | Kd (YTHDC2) | Selectivity DF2 over DC2 (Kd ratio DC2/DF2) (YTHDC2) | Improvement of HTRF IC50 compared to fragment 14 (GST-YTHDF2) | IC50 (GST-YTHDF1) [µM] | Potency for DF2 relative to 6-cyclopropyluracil (GST-YTHDF2; HTRF IC50 values) [factor] | Residual signal DF1 at highest concentration (GST-YTHDF1; HTRF, 62.5 μM compound) [%] |
| --- | --- | --- | --- | --- | --- | --- | --- | --- | --- | --- |
| O=c1[nH]c(=S)[nH]c2scc(-c3ccc(O)cc3)c12 [Compound 19] | 5 | 0.34 kcal/(mol HAC) | 32 | 8 | 40 µM | – | – | – | – | – |
| O=C(O)c1csc2[nH]c(=S)[nH]c(=O)c12 [Compound S90] | 14 | – | 60 | 36 | 240 µM | – | – | – | – | – |
| Cc1c(C(=O)NCc2ccccc2)sc2[nH]c(=S)[nH]c(=O)c12 [Compound 22] | 5 | 0.31 kcal/(mol HAC) | 10 | 17 | 270 µM | – | – | – | – | – |
| CCOC(=O)c1sc2[nH]c(=S)[nH]c(=O)c2c1C [Compound 21] | 5 | 0.42 kcal/(mol HAC) | 6.3 | 12 | 230 µM | – | – | – | – | – |
| O=c1[nH]c(=S)[nH]c2sc(Cc3ccccc3)cc12 [Compound S85] | 13 | – | 33 | 34 | 160 µM | – | – | – | – | – |
| NC(=O)c1csc2[nH]c(=S)[nH]c(=O)c12 [Compound 31] | 13 | 0.47 kcal/(mol HAC) | 14 | 27 | 18 µM | – | – | – | – | – |
| Cc1c(C(=O)NCc2cccnc2)sc2[nH]c(=S)[nH]c(=O)c12 [Compound 23] | 9 | 0.31 kcal/(mol HAC) | 11 | 20 | > 400 µM and 450 µM | about 350 fold | – | > 60 | 15 | 51 |
| COc1ccc(-c2csc3[nH]c(=S)[nH]c(=O)c23)cc1 [Compound S76] | 6 | – | 24 | 12 | 54 µM | – | – | – | – | – |
| CCOC(=O)c1csc2[nH]c(=S)[nH]c(=O)c12 [Compound S89] | 8 | – | 62 | 16 | 450 µM and > 400 µM | – | – | – | – | – |
| Cc1c(C(=O)NCc2cccc(C(=O)O)c2)sc2[nH]c(=S)[nH]c(=O)c12 [Compound 24] | 3 | 0.26 kcal/(mol HAC) | 20 | 5 | 41 µM | – | – | – | – | – |
| Cc1c(-c2ccc([N+](=O)[O-])cc2)sc2[nH]c(=S)[nH]c(=O)c12 [Compound 26] | 7 | 0.35 kcal/(mol HAC) | 4.9 | 12 | 35 µM | – | 3- to 4 fold | – | – | – |

Other lines, results leading:

| Single-dose residual signal at 100 µM, DF2 (GST-YTHDF2) [%] | LE (ligand efficiency, DF2) (GST-YTHDF2) | IC50 (GST-YTHDF2) [µM] | Single-dose residual signal at 100 µM, DF1 (GST-YTHDF1; HTRF) [%] | Kd (YTHDC2) | Selectivity DF2 over DC2 (Kd ratio DC2/DF2) (YTHDC2) | Improvement of HTRF IC50 compared to fragment 14 (GST-YTHDF2) | IC50 (GST-YTHDF1) [µM] | Potency for DF2 relative to 6-cyclopropyluracil (GST-YTHDF2; HTRF IC50 values) [factor] | Residual signal DF1 at highest concentration (GST-YTHDF1; HTRF, 62.5 μM compound) [%] | Compound |
| --- | --- | --- | --- | --- | --- | --- | --- | --- | --- | --- |
| 8 | 0.60 kcal/(mol HAC) | 18 | 15 | 88 µM | ~20 fold | – | – | – | – | O=c1[nH]c(=S)[nH]c2sccc12 [Compound 14] |
| 3 | 0.45 kcal/(mol HAC) | 13 | 8 | 46 µM | – | – | – | – | – | CC(=O)c1sc2[nH]c(=S)[nH]c(=O)c2c1C [Compound 20] |
| 7 | 0.32 kcal/(mol HAC) | 14 | 6 | 130 µM | – | – | – | – | – | Cc1c(C(=O)NCCCC(=O)O)sc2[nH]c(=S)[nH]c(=O)c12 [Compound 25] |
| 0 | 0.39 kcal/(mol HAC) | 3.9 | 6 | 30 µM | – | 3- to 4 fold | 13 | – | – | Cc1c(-c2ccc(N)cc2)sc2[nH]c(=S)[nH]c(=O)c12 [Compound 27] |
| 4 | 0.36 kcal/(mol HAC) | 5.4 | 3 | 7.7 µM | – | 3 fold | 11 | – | – | O=C(O)c1ccc(-c2csc3[nH]c(=S)[nH]c(=O)c23)cc1 [Compound 18] |
| 12 | – | 33 | 32 | 240 µM | – | – | – | – | – | O=c1[nH]c(=S)[nH]c2scc(C3CCCCC3)c12 [Compound S77] |
| 4 | 0.35 kcal/(mol HAC) | 4.7 | 7 | 6.3 µM | – | 3 fold | 10 | – | – | COC(=O)c1ccc(-c2csc3[nH]c(=S)[nH]c(=O)c23)cc1 [Compound 17] |
| 4 | – | 27 | 9 | 37 µM | – | – | – | – | – | O=c1[nH]c(=S)[nH]c2scc(-c3ccc(Br)cc3)c12 [Compound S75] |
